# Experiments:
# DLD-1 = test: Cancer cell growth inhibition, DLD-1; format: cell-based, human; conditions: Homo sapiens; DLD-1, Colorectal Cancer, 72 h treatment
# Procedure: (§1) Cell culture-based assays were used to evaluate the ability of compounds of the invention to inhibit cancer cell growth inhibition.
# (§2) Cells were obtained from the American Type Culture Collection (ATCC). Cells were cultured at 37° C. with 5% CO2 in the appropriate growth medium (see table below), and harvested respectively during the logarithmic growth period and counted with hemocytometer. The cell viability was over 98% by trypan blue exclusion. Cell concentrations were adjusted between 5×10^4 and 2×10^5 cells/ml with respective medium.
# (§3) Stock solutions of test compounds and positive drugs Doxorubicin (Zhejiang, Haizheng, China), Paclitaxel (Beijing, Xiehe, China), Vincristin (Shenzhen Wanle, China), 5-FU (Tianjin jinyaoanjisuan, China), Irinotecan (Jiangsu Hengrui, China) and Cisplatin Nanjing zhiyao, China) were prepared in dimethyl sulphoxide (DMSO) or PBS at 20 mM.
# (§4) All treatments were performed in triplicate. 10 μl drug solution was added to each well and incubated for 72 hours. At the end of the incubation, 20 μl of the freshly prepared MTS/PMS mixture solution was added to each well and incubated for 4 hours at 37° C. in a humidified, 5% CO2 atmosphere. Absorbance was read at 490 nm using SpectraMAX Plus microplate spectrophotometer. […] In order to calculate IC50, a dose-responsive curve was fitted using nonlinear regression model with a sigmoidal dose response.
# BT474 = test: Cancer cell growth inhibition, BT474; format: cell-based; conditions: Homo sapiens, BT-474; BT474, Breast Cancer, 72 h treatment
# Procedure: as §1, §2, §3, §4
# MCF-7-FL = test: Cancer cell growth inhibition, MCF-7-FL; format: cell-based; conditions: Homo sapiens, Breast Cancer, 72 h treatment
# Procedure: as §1, §2, §3, §4
# NCI-H460 = test: Cancer cell growth inhibition, NCI-H460; format: cell-based, human; conditions: Homo sapiens; NCI-H460, Lung Cancer, 72 h treatment
# Procedure: as §1, §2, §3, §4
# Bx-PC-3 = test: Cancer cell growth inhibition, Bx-PC-3; format: cell-based, human; conditions: Homo sapiens, BXPC-3; Bx-PC-3, Pancreatic Cancer, 72 h treatment
# Procedure: as §1, §2, §3, §4
# DU145 = test: Cancer cell growth inhibition, DU145; format: cell-based, human; conditions: Homo sapiens, DU-145; DU145, Prostate Cancer, 72 h treatment
# Procedure: as §1, §2, §3, §4
# Calu-6 = test: Cancer cell growth inhibition, Calu-6; format: cell-based, human; conditions: Homo sapiens; Calu-6, Lung Cancer, 72 h treatment
# Procedure: as §1, §2, §3, §4
# PANC-1 = test: Cancer cell growth inhibition, PANC-1; format: cell-based, human; conditions: Homo sapiens; PANC-1, Pancreatic Cancer, 72 h treatment
# Procedure: as §1, §2, §3, §4
# SK-BR-3 = test: Cancer cell growth inhibition, SK-BR-3; format: cell-based, human; conditions: Homo sapiens; SK-BR-3, Breast Cancer, 72 h treatment
# Procedure: as §1, §2, §3, §4
# Colo205 = test: Cancer cell growth inhibition, Colo205; format: cell-based; conditions: Homo sapiens, COLO 205; Colo205, Colorectal Cancer, 72 h treatment
# Procedure: as §1, §2, §3, §4
# MIAPACA-2 = test: Cancer cell growth inhibition, MIAPACA-2; format: cell-based, human; conditions: Homo sapiens, MIA PaCa-2; MIAPACA-2, Pancreatic Cancer, 72 h treatment
# Procedure: as §1, §2, §3, §4
# SK-MES-1 = test: Cancer cell growth inhibition, SK-MES-1; format: cell-based, human; conditions: Homo sapiens; SK-MES-1, Lung Cancer, 72 h treatment
# Procedure: as §1, §2, §3, §4
# A549 = test: Cancer cell growth inhibition, A549; format: cell-based, human; conditions: Homo sapiens; A549, Lung Cancer, 72 h treatment
# Procedure: as §1, §2, §3, §4
# HCT-116 = test: Cancer cell growth inhibition, HCT-116; format: cell-based, human; conditions: Homo sapiens; HCT-116, Colorectal Cancer, 72 h treatment
# Procedure: as §1, §2, §3, §4
# MDA-MB-231 = test: Cancer cell growth inhibition, MDA-MB-231; format: cell-based, human; conditions: Homo sapiens; MDA-MB-231, Breast Cancer, 72 h treatment
# Procedure: as §1, §2, §3, §4
# SK-HEP-1 = test: Cancer cell growth inhibition, SK-HEP-1; format: cell-based; conditions: Homo sapiens, SK-HEP1; SK-HEP-1, Liver Cancer, 72 h treatment
# Procedure: as §1, §2, §3, §4
# RPMI-8226 = test: Cancer cell growth inhibition, RPMI-8226; format: cell-based, human; conditions: Homo sapiens; RPMI-8226, Orthotopic Multiple Myeloma, 72 h treatment
# Procedure: as §1, §2, §3, §4
# 786-O = test: Cancer cell growth inhibition, 786-O; format: cell-based, human; conditions: Homo sapiens, 786-0, Kindney Cancer, 72 h treatment
# Procedure: as §1, §2, §3, §4
# SK-OV-3 = test: Cancer cell growth inhibition, SK-OV-3; format: cell-based, human; conditions: Homo sapiens; SK-OV-3, Ovarian Cancer, 72 h treatment
# Procedure: as §1, §2, §3, §4
# Human HDAC8 = Human HDAC8 (Homo sapiens (Human), UniProt Q9BY41); test: HDAC8 fluorogenic peptide deacetylation assay; format: biochemical; conditions: human HDAC8, 50 μM substrate, 30° C., 2 h; read-out: IC50 (nM) of enzyme activity HDAC8
# MCF-7-218 = test: Cancer cell growth inhibition, MCF-7-218; format: cell-based; conditions: Homo sapiens; MCF-7-218, Breast Cancer, 72 h treatment
# Procedure: as §1, §2, §3, §4
# [1] = system: Nuclear Extract from HeLa Cells; test: HeLa Nuclear Extract HDAC assay; format: biochemical, human; conditions: 50 μM substrate, 30° C., 2 h, read-out: IC50 (nM) of enzyme activity HeLa
# LoVo = test: Cancer cell growth inhibition, LoVo; format: cell-based, human; conditions: Homo sapiens, Colorectal Cancer, 72 h treatment
# Procedure: as §1, §2, §3, §4
# 143b = test: Cancer cell growth inhibition, 143b; format: cell-based; conditions: Homo sapiens, Osteosarcoma, 72 h treatment
# Procedure: as §1, §2, §3, §4
# SW620 = test: Cancer cell growth inhibition, SW620; format: cell-based, human; conditions: Homo sapiens, SW-620; SW620, Colorectal Cancer, 72 h treatment
# Procedure: as §1, §2, §3, §4
# MCG803 = test: Cancer cell growth inhibition, MCG803; format: cell-based, human; conditions: Homo sapiens; MCG803, Gastric Cancer, 72 h treatment
# Procedure: as §1, §2, §3, §4
# NCI-N87 = test: Cancer cell growth inhibition, NCI-N87; format: cell-based, human; conditions: Homo sapiens; NCI-N87, Gastric Cancer, 72 h treatment
# Procedure: as §1, §2, §3, §4
# SW480 = test: Cancer cell growth inhibition, SW480; format: cell-based, human; conditions: Homo sapiens; SW480, Colorectal Cancer, 72 h treatment
# Procedure: as §1, §2, §3, §4
# Chain of Human HDAC8 (Q9BY41 whole entry): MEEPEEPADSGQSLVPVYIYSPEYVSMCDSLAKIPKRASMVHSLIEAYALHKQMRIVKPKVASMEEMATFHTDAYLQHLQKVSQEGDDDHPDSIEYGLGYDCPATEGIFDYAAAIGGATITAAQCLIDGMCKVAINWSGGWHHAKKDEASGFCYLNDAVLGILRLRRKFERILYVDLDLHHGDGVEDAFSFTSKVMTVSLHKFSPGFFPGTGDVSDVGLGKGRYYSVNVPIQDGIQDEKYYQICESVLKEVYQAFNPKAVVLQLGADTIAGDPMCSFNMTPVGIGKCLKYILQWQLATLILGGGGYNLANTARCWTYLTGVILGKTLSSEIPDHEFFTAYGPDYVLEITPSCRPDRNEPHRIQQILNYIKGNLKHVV
SMILES,IC50 (DLD-1) [µM],IC50 (BT474) [µM],IC50 (NCI-H460) [µM],IC50 (Bx-PC-3) [µM],IC50 (DU145) [µM],IC50 (Calu-6) [µM],IC50 (PANC-1) [µM],IC50 (SK-BR-3) [µM],IC50 (Colo205) [µM],IC50 (MIAPACA-2) [µM],IC50 (SK-MES-1) [µM],IC50 (A549) [µM],IC50 (HCT-116) [µM],IC50 (MDA-MB-231) [µM],IC50 (SK-HEP-1) [µM],IC50 (RPMI-8226) [µM],IC50 (786-O) [µM],IC50 (SK-OV-3) [µM],IC50 (Human HDAC8) [nM],IC50 [1] [nM],other results
"O=C(NO)c1ccc(CNC(=O)c2[nH]c(-c3ccoc3)cc2-c2ccc(O)cc2)cc1 [Example 9, 5-(3-furyl)-N-{4-[(hydroxyamino)carbonyl]benzyl}-3-(4-hydroxyphenyl)-1H-pyrrole-2-carboxamide]",6.87,3.63,10.5,7.73,4.51,9.61,10.7,1.5,4.91,2.81,7.76,11.4,1.99,4.25,4.47,1.31,13.4,4.17,227,26,IC50 (MCF-7-FL): 7.72 µM; IC50 (MCF-7-218): 12.8 µM; IC50 (LoVo): 1.91 µM; IC50 (143b): 12.9 µM; IC50 (SW620): 1.82 µM; IC50 (MCG803): 1.1 µM
"O=C(NO)c1ccc(CNC(=O)c2[nH]c(-c3ccc(O)cc3)cc2-c2ccsc2)cc1 [Example 14, N-{4-[(hydroxyamino)carbonyl]benzyl}-5-(4-hydroxyphenyl)-3-(3-thienyl)-1H-pyrrole-2-carboxamide]",24.5,1.63,26.7,6.83,1.52,4.07,9.84,0.335,1.56,0.428,18.5,11,0.0804,4.07,1.75,0.336,8.66,1.63,64.1,6.7,IC50 (MCF-7-FL): 6.64 µM; melting point: 121 to 122 °C; IC50 (MCF-7-218): 37.6 µM; IC50 (LoVo): 0.498 µM; IC50 (143b): 2.62 µM; IC50 (SW620): 1.53 µM; IC50 (MCG803): 3.27 µM
"O=C(NO)c1ccc(CNC(=O)c2[nH]c(-c3ccc(O)cc3)cc2-c2ccoc2)cc1 [Example 15, 3-(3-furyl)-N-{4-[(hydroxyamino)carbonyl]benzyl}-5-(4-hydroxyphenyl)-1H-pyrrole-2-carboxamide]",4.48,0.442,6.29,2.25,0.46,1.22,6.45,0.453,0.365,0.27,3.51,2.46,0.082,1.83,0.45,0.426,2.29,0.651,74.8,3.4,IC50 (MCF-7-FL): 3.31 µM; IC50 (MCF-7-218): 26.5 µM; IC50 (LoVo): 0.15 µM; IC50 (143b): 1.93 µM; IC50 (SW620): 0.334 µM; IC50 (MCG803): 2.01 µM
"COc1ccc(-c2cc(-c3ccoc3)c(C(=O)NCc3ccc(C(=O)NO)cc3)[nH]2)cc1 [Example 27, 3-(3-furyl)-N-{4-[(hydroxyamino)carbonyl]benzyl}-5-(4-methoxyphenyl)-1H-pyrrole-2-carboxamide]",0.592,0.119,1.68,0.775,0.339,0.492,0.965,0.771,0.248,0.881,0.588,1.02,0.416,1.49,1.1,0.0586,1.91,1.67,148,3.9,IC50 (NCI-N87): 0.153 µM; IC50 (SW480): 0.574 µM; IC50 (LoVo): 0.43 µM; IC50 (143b): 2.57 µM; IC50 (SW620): 0.377 µM; IC50 (MCG803): 0.738 µM
"COc1ccc(-c2cc(-c3ccsc3)c(C(=O)NCc3ccc(C(=O)NO)cc3)[nH]2)cc1 [Example 28, N-{4-[(hydroxyamino)carbonyl]benzyl}-5-(4-methoxyphenyl)-3-(3-thienyl)-1H-pyrrole-2-carboxamide]",3.22,12.9,12.1,8.28,1.86,0.726,11.5,4.08,3.1,7.52,1.78,3.43,1.46,73.8,9.93,0.462,10,8.43,174,22,IC50 (NCI-N87): 1.48 µM; IC50 (SW480): 2.38 µM; IC50 (LoVo): 3.85 µM; IC50 (143b): 11.1 µM; IC50 (SW620): 2 µM; IC50 (MCG803): 6.08 µM
